From patent US9687484B2, “Crystalline forms of an antidepressant compound” (DIPHARMA FRANCIS S.r.l., priority 2014, dated 2017)
Counter-ions that a name gives are not always drawn.

Key:
[1] = as said in WO 2014/044721; cited from earlier work
[2] = Physical and chemical stability of crystalline form ω under standard conditions; format: physicochemical; conditions: standard pressure, temperature and humidity conditions; FIGS. 6 and 7
[3] = XRPD comparison of crystalline form ω fresh and after storage; format: physicochemical; conditions: in the presence of moisture; FIGS. 6 and 7: 4° C. 24 hours, room temperature 24 hours, 25° C. and 60% RH 7 days
Experimental: FIG. 6: Comparison of XRPD spectra of a sample of vortioxetine hydrobromide in crystalline form ω, as defined herein, freshly prepared (top line), after the same sample of vortioxetine hydrobromide in crystalline form ω has been kept at low temperature (4° C.) for 24 hours (middle line), and after the sample has been kept at room temperature for 24 hours (bottom line).
FIG. 7: Comparison of XRPD spectra of a sample of vortioxetine hydrobromide in crystalline form ω, as defined herein, freshly prepared (bottom line), and the same sample analysed after 7 days, kept at a temperature of 25° C. and 60% relative humidity (RH) (top line).
Crystalline form ω of vortioxetine hydrobromide was characterised by X-ray powder diffraction (XRPD). The X-ray powder diffraction (XRPD) spectra shown in FIGS. 3, 6 and 7 were collected with a PANalytical X'Pert PRO automatic powder diffractometer under the following operating conditions: CuKα radiation (λ=1.54 Å), scanning with a 2θ angle range of 3-40° with a step size of 0.017° for 12.7 sec.

[4] = Hygroscopicity of crystalline form ω under standard storage conditions; format: physicochemical
[5] = greater relative humidity than the standard conditions; as described in WO 2007/144005, acknowledged by WO2014/044721; cited from earlier work

## Cc1ccc(Sc2ccccc2N2CCNCC2)c(C)c1 [delta crystalline form, vortioxetine hydrobromide]
[1]
  solubility in water: high solubility in water

## Cc1ccc(Sc2ccccc2N2CCNCC2)c(C)c1 [crystalline form ω, hydrobromide salt of 1-[2-(2,4-dimethylphenylsulphanyl)phenyl]piperazine]
[2]
  physical and chemical stability: stable from both the physical and the chemical standpoint
[3]
  retention of crystalline form (XRPD): keeps its crystalline form
[4]
  hygroscopicity: not hygroscopic

## Cc1ccc(Sc2ccccc2N2CCNCC2)c(C)c1 [gamma, vortioxetine hydrobromide]
[5]
  hygroscopicity (tendency to absorb water): significant hygroscopicity
